Among the data in ChEMBL document CHEMBL4325898, “Recent advances in the development of neuroprotective agents and therapeutic targets in the treatment of cerebral ischemia” (Eur J Med Chem, 2019) are Activity values, retold here.

In this test the test system is Felis catus. As to the kind of experiment: Reduction in infarct volume in cat at 0.5 mg/kg administered as bolus dose at 15 mins before middle cerebral artery occlusion followed by infusion of 0.14 mg/kg/hr measured after 6 hrs. Also noted: scale not given: the % may be the effect or the level left. Format: functional.

Consider `C[C@]12N[C@H](Cc3ccccc31)c1ccccc12.O=C(O)/C=C/C(=O)O`, for which the Activity is given as 75%.
